Laboratory results taken from patent US10927136B2, “Phosphorus prodrugs of pyrazolo-substituted pyrimidine sGC stimulators” (Cyclerion Therapeutics, Inc., priority 2016, dated 2021).
pEC50: −log10 of the molar value. Converted amounts (≈) assume the structure as drawn. Read-outs that look alike come from different tables or passages of the source.

Columns and labels:
[1] = Thermodynamic solubility measurements; assay type: physicochemical; conditions: aqueous buffer, pH 7, aqueous buffer, thermodynamic from solid
Procedure: Approximately 1 mg of test compound was weighed into 1.5 mL Eppendorf tubes and 1.5 mL of aqueous buffer of a given pH was added. The samples were vortexed and placed on a shaker at 150 RPM for 2-5 days. The samples were harvested and then centrifuged at 12 K RPM for 20 minutes. The supernatant was diluted twice with Acetonitrile (ACN) and analyzed by UPLC. To dilute the samples, 200 uL of supernatant was taken and discarded. Then, 400 uL of supernatant (with 200 uL intervals) was taken and added to 400 uL of acetonitrile (with 200 uL intervals).
UPLC conditions: Mobile Phase A: 0.1% TFA in Water; Mobile Phase B: 0.1% TFA in Acetonitrile; Column: Acquity BEH C18, 1.7 um, 2.1×50 mm; Injection Volume: 2-3 uL; Autosampler Temperature: Ambient; Column Temperature: 25° C.; Run Time: 10 minutes; Flow Rate: 0.45 mlJmin; Collected Wavelengths: 220 nm, 245 nm, 254 nm, 280 nm, PDA Spectrum (190-400 nm); Wavelength Used for Analysis: 254 nm

[2] = biological target: T1, soluble guanylate cyclase (sGC) (Homo sapiens, UniProt Q02108+Q02153); assay: sGC-HEK-cGMP assay with LC/MS detection; assay type: cell-based; conditions: for pEC50: HEK293 cells, 10 μM DETA-NONOate, cGMP by LC/MS, read-out: Absolute EC50; for sGC agonism as compared to parent drug: HEK assay with LC/MS detection
T1 construct: endogenously expressing soluble guanylate cyclase (sGC); endogenous in cells; host or cells: HEK293
T1 sequence (Q02153 1-619): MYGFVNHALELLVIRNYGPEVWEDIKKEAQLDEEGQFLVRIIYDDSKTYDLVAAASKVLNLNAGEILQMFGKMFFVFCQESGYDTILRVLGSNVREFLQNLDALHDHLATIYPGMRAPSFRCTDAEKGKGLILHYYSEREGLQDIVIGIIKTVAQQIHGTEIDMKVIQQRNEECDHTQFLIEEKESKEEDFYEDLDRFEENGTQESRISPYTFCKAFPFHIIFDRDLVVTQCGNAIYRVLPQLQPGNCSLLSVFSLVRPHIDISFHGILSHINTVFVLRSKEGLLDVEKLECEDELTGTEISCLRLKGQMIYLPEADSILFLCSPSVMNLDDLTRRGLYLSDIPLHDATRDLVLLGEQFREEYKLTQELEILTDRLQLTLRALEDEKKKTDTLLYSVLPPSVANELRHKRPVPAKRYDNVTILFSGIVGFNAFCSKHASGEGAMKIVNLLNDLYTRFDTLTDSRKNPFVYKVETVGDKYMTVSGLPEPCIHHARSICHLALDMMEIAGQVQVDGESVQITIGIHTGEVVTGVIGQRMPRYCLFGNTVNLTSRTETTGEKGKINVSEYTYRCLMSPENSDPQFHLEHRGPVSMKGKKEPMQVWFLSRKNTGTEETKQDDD
T1 sequence (Q02108 1-690): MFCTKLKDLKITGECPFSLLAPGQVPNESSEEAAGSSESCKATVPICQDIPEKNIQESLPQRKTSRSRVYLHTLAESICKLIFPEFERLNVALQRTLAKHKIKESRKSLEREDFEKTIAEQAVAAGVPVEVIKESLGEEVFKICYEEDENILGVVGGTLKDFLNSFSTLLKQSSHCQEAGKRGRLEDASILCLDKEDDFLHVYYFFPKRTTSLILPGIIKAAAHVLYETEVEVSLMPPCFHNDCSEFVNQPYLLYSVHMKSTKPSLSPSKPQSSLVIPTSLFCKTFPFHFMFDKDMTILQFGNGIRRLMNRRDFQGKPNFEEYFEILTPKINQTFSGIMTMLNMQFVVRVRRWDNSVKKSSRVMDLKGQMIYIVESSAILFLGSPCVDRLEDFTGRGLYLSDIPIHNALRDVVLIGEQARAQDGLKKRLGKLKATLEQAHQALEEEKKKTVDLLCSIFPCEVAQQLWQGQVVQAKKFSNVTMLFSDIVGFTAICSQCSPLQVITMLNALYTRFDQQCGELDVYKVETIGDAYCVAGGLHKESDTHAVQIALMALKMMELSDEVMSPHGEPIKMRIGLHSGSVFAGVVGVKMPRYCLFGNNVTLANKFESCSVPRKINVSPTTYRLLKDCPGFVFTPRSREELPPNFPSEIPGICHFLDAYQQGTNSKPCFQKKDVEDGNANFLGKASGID
Procedure: Human embryonic kidney cells (HEK293), endogenously expressing soluble guanylate cyclase (sGC), were used to evaluate the activity of test compounds. Compounds stimulating the sGC enzyme should cause an increase in the intracellular concentration of cGMP. HEK 293 cells were seeded in Dulbecco's Modification of Eagle's Medium supplemented with fetal bovine serum (10% final) and penicillin (100 U/mL)/streptomycin (100 μg/mL) in a 50 μL volume at a density of 1.5×10^4 cells/well in a poly-D-lysine coated 384 well flat bottom plate. Cells were incubated overnight at 37° C. in a humidified chamber with 5% CO2. Medium was aspirated and cells were washed with 1×Hank's Buffered Saline Salt Solution (50 μL). Cells were then incubated for 15 minutes at 37° C. with 50 μL of a 0.5 mM 3-isobutyl-1-methylxanthine (IBMX) solution. The test article and Diethylenetriamine NONOate (DETA-NONOate) solutions (x μM concentration for test article solution and 10 μM concentration for DETA-NONOate solution; wherein x is one of the following concentrations)
were then added to the assay mixture and the resulting mixture was incubated at 37° C. for 20 minutes. After the 20 minute incubation, the assay mixture was aspirated and 10% acetic acid containing 150 ng/mL+3-cGMP (internal standard for LCMS) (50 μL) was added to the cells. The plate was incubated at 4° C. for 30 minutes in the acetic acid solution to stop the reaction and lyse the cells. The plates were then centrifuged at 1,000 g for 3 minutes at 4° C. and the supernatant transferred to a clean reaction plate for LCMS analysis.
cGMP concentrations were determined from each sample using the LCMS conditions below (Table 2) and calculated standard curve. The standard curve was prepared in 10% acetic acid with 150 ng/mL+3cGMP (isotopically labelled cGMP with a weight 3 units higher than wild type) with the following final concentrations of cGMP in ng/mL: 1, 5, 10, 50, 100, 250, 500, 1000, 2000.
Data were normalized to a high control using the following equation: 100*(Sample−Low Control)/(High Control−Low Control), where the low control is the average of 16 samples treated with 1% DMSO, and the high control is the average of 16 samples treated with 30 μM of Compound Y depicted below. Data were fit using a 4-parameter fit (log(agonist) vs. response—variable slope) using GraphPad Prism Software v.5. n=2 for all compounds. The Absolute EC50 was interpolated from the curve fit and is defined as the concentration at which a given compound elicits 50% of the high control response. Compounds failing to elicit a minimum response of 50% are reported as >30 μM. For compounds run in duplicate or n higher than 2, the result herein given is the geometric mean of the several results obtained.
sGC enzyme activity values in HEK cells, expressed as Absolute EC50 which is defined as the concentration at which a given compound elicits 50% of the high control response obtained with Compound Y, after normalization.

In the case of O=P(O)(O)OCOC(CNc1nc(-c2cc(-c3ccon3)n(Cc3ccccc3F)n2)ncc1F)(C(F)(F)F)C(F)(F)F [Compound I-4], the solubility [1] was 71 µg/mL (≈ 110 µM), the pEC50 ([2]; prodrug) was 4.60 and the “sGC agonism as compared to parent drug” value [2] was “did not exhibit a high degree of sGC agonism”.
With OC(CNc1nc(-c2cc(-c3ccon3)n(Cc3ccccc3F)n2)ncc1F)(C(F)(F)F)C(F)(F)F [Intermediate 3] the solubility [1] was 2 to 3 µg/mL (≈ 3.74 to 5.61 µM) and the pEC50 ([2]; Parent compound column) was 6.66.
With O=P(O)(O)OC(CNc1nc(-c2cc(-c3ccon3)n(Cc3ccccc3F)n2)ncc1F)(C(F)(F)F)C(F)(F)F [Compound I-1] the solubility [1] was 66 to 1000 µg/mL (≈ 107 to 1630 µM), the pEC50 ([2]; prodrug) was 4.89 and the “sGC agonism as compared to parent drug” value [2] was “did not exhibit a high degree of sGC agonism”.
